Measured values: patent US4388320A, “3-Aminopropoxyaryl derivative in the treatment of tremor” (Sandoz Ltd., priority 1981, dated 1983)
Entries after “also recorded” stand apart in the source; their conditions may differ.

Columns and labels:
[1] = clinical observations, treatment of tremor (overall); assay type: in vivo, patients
adrenergic β-receptors = settings: U.K. Patent Specification No. 1,575,510; cited from earlier work
acute toxicity, mouse = settings: in vivo, hydrogen malonate form
Text: (§1) The tolerability of the compound was also studied using standard tests. For example, the acute toxicity of the compound of formula I in hydrogen malonate form is as follows: […]

acute toxicity, rat = settings: in vivo, hydrogen malonate form
Text: as §1

[2] = system: lipolysis and glycogenolysis induced by isoproterenol; settings: U.K. Patent Specification No. 1,575,510; cited from earlier work
[3] = further, similar clinical study, 4 patients with essential (familiary) tremor (Table 2); assay type: in vivo; settings: 1 to 12 mg per day
Procedure: The result of a further, similar study with 4 patients with essential (familiary) tremor treated for 4 weeks with 1 to 12 mg per day of the compound of formula I in hydrogen malonate form is indicated in table 2: […]

[4] = first clinical study, 6 patients with constant essential (familiary) tremor, 4 weeks (Table 1); assay type: in vivo
Procedure: In one clinical study 6 patients with constant essential (familiary) tremor were given for 4 weeks once-a-day in the morning a capsule containing 1 to 8 mg of the compound of formula I in hydrogen malonate form. The dosage was increased gradually over the first two weeks of the study.

[5] = U.K. Patent Specification No. 1,575,510; cited from earlier work
[6] = tolerability and comparison with other agents in anti-tremor use; assay type: in vivo, patients
acute toxicity, rabbit = settings: in vivo, hydrogen malonate form
Text: as §1

[7] = another clinical study, 6 patients with essential (familiary) tremor (Table 3); assay type: in vivo; settings: 4 to 12 mg per day
[8] = known use; cited from earlier work
[9] = 4 patients, 4 weeks, hydrogen malonate form
[10] = after 2 weeks, total 6 patients, capsule once-a-day, 1 to 8 mg, hydrogen malonate form
[11] = after 4 weeks, total 6 patients, capsule once-a-day, 1 to 8 mg, hydrogen malonate form
[12] = 6 patients, 4 weeks, hydrogen malonate form

Cc1cc2c(OCC(CNC(C)(C)C)OC(=O)c3ccccc3)cccc2[nH]1 (stereo not shown) [compound of formula I, 4(2-benzoyloxy-3-tert-butylaminopropoxy)-2-methylindole]
usefulness / improvement in treatment of tremor (in words) [1]: impressive improvement; also recorded: useful in the treatment of tremor, especially of essential (familiary) tremor | blocking effect on the adrenergic β-receptors (adrenergic β-receptors): blocking effect on the adrenergic β-receptors | LD50 (acute toxicity, mouse; iv, read-out: LD50 i.v.): 11 mg/kg | LD50 (acute toxicity, mouse; po, read-out: LD50 p.o.): 242 mg/kg | LD50 (acute toxicity, rat; iv, read-out: LD50 i.v.): 9 mg/kg | LD50 (acute toxicity, rat; po, read-out: LD50 p.o.): 1010 mg/kg | inhibition of lipolysis and glycogenolysis [2]: inhibit lipolysis and glycogenolysis induced by isoproterenol | hypotension and bradycardia [3]: no hypotension and no bradycardia | side effects [3]: exceptionally few side effects | time to first observed improvement [3]: already after one week of treatment | time to maximum improvement [3]: 2 weeks | improvement (in words) ([3]; 4 patients, 4 weeks): marked improvement was observed in all 4 patients | Number of patients showing good improvement [3, 9]: 2 patients | Number of patients showing very good improvement [3, 9]: 2 patients | improvement in tremor, benefit (in words) ([4]; 6 patients, 4 weeks, 1 to 8 mg once-a-day): all patients gained benefit; also recorded: the degree of improvement was either marked or moderate | Number of patients with marked (Ma) improvement after 2 weeks [4, 10]: 2 patients | Number of patients with moderate (Mo) improvement after 2 weeks [4, 10]: 4 patients | Number of patients with marked (Ma) improvement after 4 weeks [4, 11]: 3 patients | Number of patients with moderate (Mo) improvement after 4 weeks [4, 11]: 3 patients | hypotension and bradycardia ([4]; during treatment): No hypotension and no bradycardia | side effects ([4]; during treatment): remarkably free of side effects | duration of beneficial effect ([4]; once-a-day in the morning): the beneficial effect lasted the whole day | antiarrhythmic effect [5]: antiarrhythmic effect | hypotension or bradycardia ([6]; in vivo): not induce hypotension or bradycardia | influence on P-Q wave in the electrocardiogramm ([6]; in vivo): does not significantly influence the P-Q wave | overall safety ([6]; in vivo): exceptionally safe | effect on blood pressure and heart rate ([6]; patients with underlying hypertension or tachycardia): normalization of blood pressure and heart rate | onset of anti-tremor activity compared with anticholinergics ([6]; versus anticholinergics): more rapid onset of activity | tolerability compared with anticholinergics ([6]; versus anticholinergics): better tolerated than anticholinergics | tolerability compared with other β-adrenoceptor blocking agents ([6]; versus e.g. propranolol): better tolerated than other β-adrenoceptor blocking agents, e.g. propranolol | LD50 (acute toxicity, rabbit; iv, read-out: LD50 i.v.): 7 mg/kg | LD50 (acute toxicity, rabbit; po, read-out: LD50 p.o.): 334 mg/kg | hypotension and bradycardia [7]: no hypotension and no bradycardia | improvement (in words) ([7]; 6 patients, 4 weeks): These results were confirmed; also recorded: very good or good improvement was observed in all patients | Number of patients showing good improvement [7, 12]: 3 patients | Number of patients showing very good improvement [7, 12]: 3 patients

C=CCOc1ccccc1OCC(O)CNC(C)C (stereo not shown) [oxprenolol]
activity against tremor [8]: inactive

C=CCc1ccccc1OCC(O)CNC(C)C (stereo not shown) [alprenolol]
activity against tremor [8]: inactive

CC(C)(C)NC[C@H](O)COc1nsnc1N1CCOCC1 [timolol]
activity against tremor [8]: inactive

CC(C)NCC(O)COc1cccc2ccccc12 (stereo not shown) [propranolol]
activity against tremor [8]: conflicting results
